Assay results: ChEMBL document CHEMBL1201862, “PubChem BioAssay data set” (2004)
Where “and” joins values, the source holds several entries; their conditions need not be identical. Identical values can stand only once.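 Test compounds were applied to cells in 96-well plates for 48 hours at 5 doses. Here, GI50 denotes the concentration required for 50% inhibition of growth.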 Calls of active or inactive are those of the source. No stated cut-off is given here; in the data, active = GI50 up to about 1.1 µM and inactive = higher.

Experiments:
Assay in all cases: NCI-60 cell line screen, 48 h
[1] = tested on: Malme-3M
[2] = tested on: A549
[3] = tested on: NCI-H23
[4] = tested on: SK-MEL-28
[5] = tested on: UACC-257
[6] = tested on: NCI/ADR-RES
[7] = tested on: IGROV-1
[8] = tested on: LOX IMVI
[9] = tested on: TK-10
[10] = tested on: UACC-62
[11] = tested on: SW-620
[12] = tested on: SF-539
[13] = tested on: ACHN
[14] = tested on: SF-295
[15] = tested on: NCI-H460
[16] = tested on: COLO 205
[17] = tested on: HOP-92
[18] = tested on: MOLT-4
[19] = tested on: OVCAR-8

Measured: GI50

COC1OC(COC(=O)NCCCCC(=O)C(F)(F)C(F)(F)C(F)(F)C(F)(F)C(F)(F)C(F)(F)C(F)(F)F)C(O)C(O)C1O (configuration not stated)
inactive: [1] 22.8 µM and 20.1 µM | [2] 17.9 µM and 15.6 µM | [3] 14.8 µM and 17.8 µM | [4] 17.3 µM and 16.7 µM | [5] 16.9 µM and 16.6 µM | [6] 34.5 µM and 28.4 µM | [7] 16.5 µM and 14.3 µM | [8] 14.2 µM and 15.9 µM | [9] 16.9 µM and 16.4 µM | [10] 13.7 µM and 14.4 µM | [11] 17.1 µM and 15.8 µM | [12] 18 µM and 15.5 µM | [13] 15.6 µM and 16.4 µM | [14] 20.7 µM and 19.5 µM | [15] 22.4 µM and 16.8 µM | [16] 25.9 µM and 21.8 µM

O=c1[nH]nc(-c2ccccc2)n1-n1cnnc1
inactive: [1] > 100 µM | [17] > 100 µM | [18] > 100 µM | [2] > 100 µM | [3] > 100 µM | [5] > 100 µM | [6] > 100 µM | [19] > 100 µM | [7] > 100 µM | [8] > 100 µM | [9] > 100 µM | [10] > 100 µM | [11] > 100 µM | [12] > 100 µM | [13] > 100 µM | [14] > 100 µM | [15] > 100 µM | [16] > 100 µM

Nc1ccc2nc(-c3cccc(C(F)(F)F)c3)cc(O)c2c1
inactive: [1] 40.6 µM | [17] > 100 µM | [18] 40.4 µM | [2] 71.4 µM | [3] 54.6 µM | [4] 53.5 µM | [5] 51.2 µM | [6] 92.9 µM | [19] 47 µM | [7] 33.5 µM | [8] 51.9 µM | [9] 58.2 µM | [10] 53.2 µM | [11] 62.1 µM | [12] 19.6 µM | [13] 80.2 µM | [15] 29.8 µM | [16] 27.2 µM

C[C@@H]1CC[C@@H](C)[C@](C)(CCc2ccoc2)C/C=C\C=C/1C(=O)O
inactive: [1] > 50 µM | [17] > 50 µM | [18] 31.8 µM | [2] > 50 µM | [3] 32.1 µM | [4] > 50 µM | [5] > 50 µM | [6] > 50 µM | [19] > 50 µM | [7] > 50 µM | [8] > 50 µM | [9] > 50 µM | [10] > 50 µM | [11] > 50 µM | [12] > 50 µM | [13] > 50 µM | [14] > 50 µM | [15] > 50 µM | [16] > 50 µM

COc1cc(Br)c(/C=N/N=C(\N)NO)cc1OC
inactive: [1] 21.1 µM | [17] 23.6 µM | [18] 57.1 µM | [2] 10.4 µM | [3] 26 µM | [4] 17.5 µM | [5] 17.3 µM | [19] 15.6 µM | [7] 30.4 µM | [8] 17.6 µM | [9] 7.69 µM | [10] 11.1 µM | [11] 35.1 µM | [12] 24.7 µM | [13] 9.35 µM | [14] 28.5 µM | [15] 5.22 µM | [16] 11 µM

O=C(O)CSc1nnc(-c2ccco2)[nH]1
inactive: [1] > 100 µM | [17] > 100 µM | [18] > 100 µM | [2] > 100 µM | [3] > 100 µM | [4] > 100 µM | [5] > 100 µM | [19] > 100 µM | [7] > 100 µM | [8] > 100 µM | [9] > 100 µM | [10] > 100 µM | [11] > 100 µM | [12] > 100 µM | [13] > 100 µM | [14] > 100 µM | [15] > 100 µM | [16] > 100 µM
